Results reported in article PMC6116705, “Design, synthesis, in vitro antiproliferative activity and apoptosis-inducing studies of 1-(3′,4′,5′-trimethoxyphenyl)-3-(2′-alkoxycarbonylindolyl)-2-propen-1-one derivatives obtained by a molecular hybridisation approach” (Journal of Enzyme Inhibition and Medicinal Chemistry, 2018).
Entries after “also recorded” stand apart in the source; their conditions may differ. Where two headings read alike, the source gives them in different places.

What was measured:
[1] = test system: tubulin (colchicine site); experiment: Inhibition of [3H]colchicine binding to tubulin; parameters: species or system bovine; details: tubulin 1 µM, [3H]colchicine 5 µM, compound 5 µM
Method: To evaluate the effect of the compounds on tubulin assembly in vitro[40], varying concentrations of compounds were preincubated with 10 μM bovine brain tubulin in 0.8M monosodium glutamate (pH adjusted to 6.6 with HCl in a 2.0M stock solution) at 30 °C and then cooled to 0 °C. After addition of 0.4 mM GTP, the mixtures were transferred to 0 °C cuvettes in a recording spectrophotometer and warmed to 30 °C. Tubulin assembly was followed turbidimetrically at 350 nm. […] The capacity of the test compounds to inhibit colchicine binding to tubulin was measured as described. The reaction mixtures contained 1 μM tubulin, 5 μM [^3H]colchicine and 5 μM test compound.

[2] = test system: human myeloid leukaemia U-937 cells; experiment: MTT cytotoxicity assay, U-937; assay type: cell-based; details: U-937, MTT, 72 h, read-out: IC50, inhibition of cell growth
Method: (§1) U-937 (human myeloid leukaemia) cells from DSMZ (German Collection of Microorganisms and Cell Cultures, Braunschweig, Germany) and U-937 cells overexpressing human Bcl-2 protein (designated U-937/Bcl-2, donated by Dr Jacqueline Bréard, INSERM U749, Faculté de Pharmacie Paris-Sud., Châtenay-Malabry, France) were cultured in RPMI-1640 medium containing 10% (v/v) heat-inactivated foetal bovine serum, 100 μg/mL streptomycin and 100 U/mL penicillin, incubated at 37 °C in a humidified atmosphere containing 5% CO2 as described. The functioning of U-937/Bcl-2 cells was tested using the cytotoxic agent 1-β-D-arabino-furanosylcytosine as previously described. Human peripheral blood mononuclear cells (PBMC) were isolated from heparin-anticoagulated blood of healthy volunteers by centrifugation with Ficoll-Paque Plus (GE Healthcare Bio-Sciences AB, Uppsala, Sweden). PBMC were also stimulated with phytohemagglutinin (2 μg/mL) for 48 h before the experimental treatment. The trypan blue dye exclusion method was used for counting the living/dead cells by a hematocytometer with 95% viability in all experiments. The cytotoxicity of compounds was evaluated by the colorimetric 3-(4,5-dimethyl-2-thiazolyl-)-2,5-diphenyl-2H-tetrazolium bromide (MTT) assay as previously described. Briefly, 5 × 10^3 exponentially growing cells were seeded in 96-well microculture plates with increasing concentrations of compounds for 72 h. After the addition of MTT (0.5 mg/mL), cells were incubated at 37 °C for 4 h. Sodium dodecyl sulphate (10% w/v) in 0.05 M HCl was added to the wells and then incubated at room temperature overnight in the dark. Absorbance was measured at 570 nm. […] Values are mean ± SE from at least three independent experiments, each performed in triplicate. Compounds were dissolved in DMSO and kept in the dark at 25 °C.

[3] = test system: human breast adenocarcinoma (MCF-7) cells; experiment: Antiproliferative assay, cell counting (Coulter Counter), MCF-7; assay type: cell-based; details: for fold more potent than CA-4: MCF-7 cells, ratio of IC50 values
Method: (§2) Human cervix carcinoma (HeLa), human colon carcinoma (HT29), human breast carcinoma (MCF-7) and human lymphoma (HL-60) cells (3–5 × 10^4 cells) and a serial (five-fold) dilution of the test compounds were added to a 96-well microtiter plate. The cells were incubated for 72–96 h (depending on the tumor cell line) at 37 °C in a humidified 5% CO2 atmosphere. At the end of the incubation period, the cells were counted in a Coulter Counter (Coulter Electronics Ltd, Harpenden Herts, UK). […] The IC50 values represent the average (±standard deviation) of at least two to four independent experiments.

[4] = test system: human peripheral blood mononuclear cells (PBMC); experiment: Cytotoxicity on normal PBMC (quiescent or PHA-activated); assay type: cell-based; details: up to 10 μM, 24 h
Method: as §1, with “Briefly, 5 × 10^3 exponentially growing cells were seeded in 96-well microculture plates with increasing concentrations of compounds for 72 h.” left out

[5] = test system: human cervix carcinoma (HeLa) cells; experiment: Antiproliferative assay, cell counting (Coulter Counter), HeLa; assay type: cell-based; details: 72–96 h, read-out: IC50, inhibition of proliferation
Method: as §2

| SMILES | Colchicine binding % ±SD (inhibition) [1] | IC50 [2] | IC50 ([3]; Homo sapiens, MCF7, MCF-7, 72–96 h, read-out: IC50, inhibition of proliferation) | fold more potent than CA-4 [3] | Toxicity to normal PBMC [4] | IC50 ([5]; Homo sapiens) | IC50 [5] |
| --- | --- | --- | --- | --- | --- | --- | --- |
| COC(=O)c1[nH]c2cc(OC)ccc2c1/C=C/C(=O)c1cc(OC)c(OC)c(OC)c1 [Compound 9e, (E)-Methyl 6-methoxy-3-(3-oxo-3-(3,4,5-trimethoxyphenyl)prop-1-en-1-yl)-1H-indole-2-carboxylate] | 29 ± 5% | 5.7 ± 0.1 µM | 170 ± 30 nM | 1.5–2 fold | devoid of significant cytotoxic activity; also recorded: no appreciable toxicity | 370 ± 180 nM |  |
| CCOC(=O)c1[nH]c2ccc(OC)cc2c1/C=C/C(=O)c1cc(OC)c(OC)c(OC)c1 [Compound 9d, (E)-Ethyl 5-methoxy-3-(3-oxo-3-(3,4,5-trimethoxyphenyl)prop-1-en-1-yl)-1H-indole-2-carboxylate] | 9.6 ± 2% | 2.9 ± 0.7 µM |  |  | devoid of significant cytotoxic activity; also recorded: no appreciable toxicity |  |  |
| CCOC(=O)c1[nH]c2cc(OC)ccc2c1/C=C/C(=O)c1cc(OC)c(OC)c(OC)c1 [Compound 9f, (E)-Ethyl 6-methoxy-3-(3-oxo-3-(3,4,5-trimethoxyphenyl)prop-1-en-1-yl)-1H-indole-2-carboxylate] | 23 ± 1% | 6.5 ± 1.7 µM |  | 1.5–2 fold | devoid of significant cytotoxic activity; also recorded: no appreciable toxicity | < 1000 nM | 840 ± 390 nM |
